The supplement of paper PMC10307832

Columns and labels:
Assay in all cases: relative viability (nuclei count vs DMSO), 5 days (fraction); higher = more cells survive
[1] = compound: CCCS(=O)(=O)Nc1ccc(F)c(C(=O)c2c[nH]c3ncc(-c4ccc(Cl)cc4)cc23)c1F [Vemurafenib]
Method in brief: (§1)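 Five library-drug doses spaced by √10 were pinned onto vehicle-anchored 1536-well plates of lung cancer cell lines that had been kept overnight at 37 °C. Cells went 5 days without medium change, then were fixed, permeabilised and Hoechst-stained together, imaged at 4× and counted by MetaXpress. Viability is the ratio of treated-well to vehicle-well nuclei, taken as a median over plates. Plates required control CV below 25% and at least one doubling.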

[2] = compound: COc1cccc2cc(-c3nc([C@H]4CC[C@H](C(=O)O)CC4)n4ncnc(N)c34)[nH]c12 [OSI-027]
Method in brief: as §1

[3] = compound: Cc1nc(NC(=O)N2CCC[C@H]2C(N)=O)sc1-c1ccnc(C(C)(C)C(F)(F)F)c1 [Alpelisib]
Method in brief: as §1

[4] = compound: CCCS(=O)(=O)Nc1ccc(F)c(C(=O)c2c[nH]c3ncc(-c4ccc(Cl)cc4)cc23)c1F [Vemurafenib] + CS(=O)(=O)CCNCc1ccc(-c2ccc3ncnc(Nc4ccc(OCc5cccc(F)c5)c(Cl)c4)c3c2)o1 [Lapatinib] (partner 2 µM)
Method in brief: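 Five library-drug doses in √10 steps were combined with a fixed anchor-drug dose, or a single drug was given alone, by pin tool to lung cancer cell lines in 1536-well plates the day after seeding. Nuclei were stained and counted after 5 days. Relative viability is the nuclei count in treated wells over that in vehicle wells, taken as the median of duplicate plates.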

Row | Cell Line | relative viability ([1]; 0.03162 µM) | relative viability ([1]; 0.3162 µM) | relative viability ([1]; 1 µM) | relative viability ([2]; 0.01 µM) | relative viability ([2]; 0.03162 µM) | relative viability ([2]; 0.1 µM) | relative viability ([2]; 0.3162 µM) | relative viability ([2]; 0.5 µM, anchor plate) | relative viability ([2]; 1 µM) | relative viability ([3]; 0.04 µM) | relative viability ([3]; 0.1265 µM) | relative viability ([3]; 0.4 µM) | relative viability ([3]; 1.265 µM) | relative viability ([3]; 2 µM, anchor plate) | relative viability ([3]; 4 µM) | relative viability ([4]; first compound 0.03162 µM) | relative viability ([4]; first compound 0.3162 µM) | relative viability ([4]; first compound 1 µM) | relative viability ([1]; 0.1 µM) | relative viability ([4]; first compound 0.1 µM)
1 | PC-14 | 0.94 | 0.864 | 1.01 | 1 | 1.04 | 0.965 | 0.979 | 0.815 | 0.765 | 1.01 | 1 | 1.03 | 0.89 | 0.908 | 0.973 | 0.255 | 0.287 | 0.362 | – | –
2 | NCI-H3122 | 1.03 | 1.03 | 1.12 | 1.03 | 1.02 | 1.08 | 0.959 | 1.03 | 0.704 | 0.981 | 1.02 | 1.02 | 0.968 | 0.759 | 0.744 | 1.03 | 1.12 | 1.02 | 0.979 | 1.04
3 | SK-LU-1 | 0.95 | 0.669 | 0.978 | 1.08 | 0.974 | 0.916 | 0.608 | 0.328 | 0.425 | 1.07 | 0.977 | 1.03 | 0.855 | 0.922 | 0.812 | 0.777 | – | 0.803 | 0.958 | 0.791
4 | HCC-44 | 0.899 | 0.758 | 1.07 | 0.975 | 0.963 | 0.928 | 0.871 | 0.634 | 0.739 | 0.98 | 0.914 | 1.02 | 0.846 | 0.811 | 0.861 | 0.991 | 0.935 | 1.04 | 0.955 | 0.993
5 | NCI-H1703 | 1.02 | 0.795 | 0.986 | 0.913 | 0.948 | 0.759 | 0.657 | – | 0.434 | 0.89 | 0.642 | 0.654 | 0.465 | 0.348 | 0.462 | 1.19 | 0.924 | 0.987 | 0.864 | 0.916
6 | NCI-H460 | 0.983 | 0.87 | 0.975 | 1.03 | 0.973 | 1.01 | 0.917 | 0.701 | 0.704 | 0.989 | 1.02 | 1.05 | 0.949 | 0.536 | 0.757 | 0.929 | 0.82 | 0.926 | 1 | 1.08
7 | NCI-H1915 | 0.948 | 0.755 | 0.845 | 1.05 | 1.09 | 0.967 | 0.891 | 0.601 | 0.791 | 1.01 | 0.998 | 0.976 | 0.948 | 1.06 | 0.893 | 0.894 | 0.87 | 0.985 | 0.964 | 0.951
8 | NCI-H2126 | 0.925 | 0.966 | 0.988 | 0.977 | 1.02 | 0.943 | 0.873 | 0.722 | 0.664 | 1.02 | 1.01 | 0.936 | 0.791 | 0.746 | 0.758 | 0.753 | 0.862 | 0.731 | 0.845 | 0.783
9 | EPLC-272H | 0.889 | 1.01 | 0.903 | 0.972 | 0.934 | 0.78 | 0.514 | 0.289 | 0.439 | 0.898 | 0.864 | 0.984 | 0.778 | 0.92 | 0.61 | 0.913 | 0.423 | 0.939 | 0.854 | 1
10 | NCI-H1563 | 0.989 | 0.967 | 0.988 | 0.979 | 0.955 | 0.953 | 0.854 | 0.769 | 0.75 | 0.942 | 0.971 | 0.948 | 0.768 | 0.966 | 0.84 | 0.842 | 0.84 | 0.961 | 0.905 | 0.886
11 | NCI-H661 | 0.975 | 1.02 | 0.971 | 0.977 | 0.952 | 0.958 | 0.95 | 0.735 | 0.581 | 0.973 | 1.02 | 1.01 | 0.924 | 0.719 | 0.909 | 0.488 | 0.507 | 0.424 | 0.929 | 0.534
12 | PC-3 [JPC-3] | 0.972 | 0.971 | 1.18 | 1.01 | 0.993 | 1.03 | 0.918 | 0.745 | 0.698 | 1.1 | 1.03 | 1.13 | 0.943 | 0.999 | 1.01 | 0.464 | 0.626 | 0.445 | – | –
13 | NCI-H2087 | 1.01 | – | 1.13 | 0.986 | 1.03 | 0.911 | 0.911 | 0.605 | 0.508 | 1.21 | 1.02 | 1.08 | 0.868 | 1 | 0.85 | 0.761 | – | 0.967 | 1.11 | 0.981
14 | NCI-H1666 | 0.946 | 1.1 | 0.926 | 0.99 | 0.986 | 0.98 | 0.88 | 0.863 | 0.666 | 0.997 | 0.98 | 1.13 | 0.84 | 0.977 | 0.8 | 0.581 | 0.72 | 0.654 | 0.902 | –
15 | NCI-H2009 | 0.95 | 0.716 | 0.866 | 1.01 | 0.992 | 0.965 | 0.948 | 0.629 | 0.617 | 0.974 | 1.05 | 1.19 | 1.01 | 1.13 | 0.903 | 0.897 | 0.559 | 0.759 | 0.938 | 0.876
16 | NCI-H2228 | 1.04 | 1.05 | 0.999 | 0.975 | 0.88 | 0.957 | 0.941 | 0.625 | 0.619 | 0.947 | 0.881 | 1.04 | 0.686 | 0.742 | 0.495 | 1.11 | 1.21 | 1.06 | 0.948 | 1.09
